In EP0648744A1, “Phenylalkanolamine derivatives as antagonists of the NMDA receptor” (F. HOFFMANN-LA ROCHE AG, priority 1993, dated 1995):
pIC50: −log10 of the molar value.

Tests used:
NMDA receptor = assay: 3H-MK 801 (dizocilpine) binding in vitro, rat brain membranes; details: displacement of 5 nM ³H-MK 801, washed rat brain membranes; high affinity values determined from biphasic displacement curves; read-out: IC₅₀
Experimental: 1. ^3H-MK 801 (dizocilpine) binding in vitro
³H-MK 801 binding was performed as described in Ransom, R.W. and Stec, N.L., J. Neurochem. 51 (1988) 830-836, with extensively washed rat brain membranes prepared according to the following scheme. Frozen whole rat brain was thawed and cerebellum and medulla oblongata were removed on ice. The tissue was then homogenized with an Ultra Turrax (maximal energy) during 30 sec at 4°C in 50 volumes of Tris·HC1 (5mM) with ethylenediaminetetraacetic acid (EDTA) disodium (10 mM, pH = 7.4). The homogenate was centrifuged at 48'000 x g for 10 min. The pellet was rehomogenized with the same volume of the same buffer and the homogenate was then incubated at 37°C for 10 min. After centrifugation the pellet was rehomogenized under the same conditions and frozen at -80°C in 35 ml fractions for at least 16 hours and not more than 2 weeks.
On the day of experiment, the homogenate was thawed 15 minutes at 37°C and centrifuged as above. The pellet was rehomogenized in 25 volumes of Tris·HC1 buffer (5mM, pH = 7.4) and the homogenate was recentrifuged. This procedure was repeated twice. The final pellet was rehomogenized in 25 volumes of Tris·HC1 buffer (5 mM, pH = 7.4) related to the original wet weight and used as such in the assay. Final concentration in the assay was 20 mg/ml.
300 µl of tracer solution (final concentration 5 nM ³H-MK 801) in Tris·HC1 buffer (5 mM, pH 7.4) were incubated with 100 µl of test solution (100 µl of Tris·HC1 buffer for the total binding or 100 µl of buffer plus N-(1-(2-thienyl)cyclohexyl)piperidine (TCP) (final concentration 0.1 µM) for non specific binding). Glutamate, glycine and spermidine (final concentrations 1nM) were added together in 100 µl volume. 500 µl of homogenate (final concentration 20 mg/ml) were then added in the plastic reaction tubes. After 2 hours of incubation at room temperature, the suspension was filtered (Whatmann GF/B, presoaked in 0.05% polyethylenimine for 2 hours) and washed 5 times with 3 ml of cold buffer. The air-dried (3 min) filters were counted in 10 ml of Ultima-gold (Packard) after agitation (10 min.) and standing for 2 hours at 3°C in vials.
These are high affinity values determined from biphasic displacement curves.

embryonic rat cortices = assay: Acute glutamate neurotoxicity in cortical cell cultures (lactate dehydrogenase release); format: cell-based; details: neuronal degeneration, 500 µM glutamate for 5 to 30 minutes at room temperature, lactate dehydrogenase in supernatant after overnight at 37°C, read-out: IC₅₀
Experimental: 2. Acute Glutamate Neurotoxicity
Single cell suspensions were prepared from embryonic rat cortices (E16-17) by digestion with dispase 2.4 U/ml (BOEHRINGER) and subsequent trituration with fire polished pasteur pipettes. The cells were then plated on poly-D-lysine (SIGMA) coated 96 well microtiter plates (NUNC, 10⁵ cells/well) in a total volume of 100 µl Dulbeccos modified essential medium (DMEM, GIBCO) supplemented with 10% horse serum and penicillin/streptomycin (SIGMA). 5 days later, non-neuronal cell division was halted by exposure to […] combined with a 50% exchange of culture medium. The cultures were used for neurotoxicity assays from 8-12 days in vitro.
Acute glutamate toxicity was performed according to D.W. Choi. J. Koh and S. Peters, J. Neurosci. 8 (1988) 185-196, in 100 µl of a control salt solution (CSS: 120 mM NaCl, 5.4 mM KCl, 0.8 mm MgCl₂, 1.8 mM CaCl₂, 25 mM Tris HCl (pH 7.4 at 25°C) and 15 mM glycose) with 500 µM glutamate for 5 to 30 minutes at room temperature with or without addition of substances to be tested.
After washing, the cultures were maintained in 100 µl CSS overnight at 37°C. For quantitation of neurodegeneration, lactate dehydrogenase was measured in the cell culture supernatant as described by J.G. Klingman, D.M. Hartley and D.W. Choi, J. Neurosci. Meth. 31 (1990) 47-51 using a BIOMEK workstation (BECKMAN). […] From dose response curves IC₅₀ values were calculated.

Structure (SMILES)	pIC50 (NMDA receptor)	pIC50 (embryonic rat cortices)
CC(CCN1CCC(Cc2ccccc2)CC1)Cc1ccc(O)cc1 (racemic) [Ex. 6, rac.-4-[2-Methyl-4-[4-(phenylmethyl)-1-piperidinyl]butyl]phenol]	6.28	5.46
C[C@@H](CCN1CCC(Cc2ccccc2)CC1)[C@@H](O)c1ccc(O)cc1 (relative stereo) [Ex. 5, (R*,S*)-rac.-α-(4-Hydroxyphenyl)-β-methyl-4-(phenylmethyl)-1-piperidinebutanol]	6.52	5.72
C[C@@H](CN1CCC(Cc2ccccc2)CC1)[C@@H](O)c1ccc(OCc2ccccc2)cc1 (relative stereo) [Ex. 7, (R*,S*)-rac.-β-Methyl-α-[4-(phenylmethoxy)phenyl]-4-(phenylmethyl)-1-piperidinepropanol]	5.89	4.19
C[C@@H](CN1CCC(Cc2ccccc2)CC1)[C@@H](O)c1ccc(O)cc1 (relative stereo) [Ex. 8, (R*,S*)-rac.-α-(4-hydroxyphenyl)-β-methyl-4-(phenylmethyl)-1-piperidinepropanol]	8.30	7.40
C[C@H](CN1CCC(Cc2ccccc2)CC1)[C@@H](O)c1ccc(O)cc1 (relative stereo) [Ex. 9, (R*,R*)-rac.-α-(4-Hydroxyphenyl)-β-methyl-4-(phenylmethyl)-1-piperidinepropanol]	8.22	6.96
C[C@@H](CN1CCC(Cc2ccccc2)CC1)[C@@H](O)c1ccc(O)cc1 [Ex. 15, [R-(R*S*)]-α-(4-Hydroxyphenyl)-β-methyl-4-(phenylmethyl)-1-piperidinepropanol]	8.89	7.22
C[C@H](CN1CCC(Cc2ccccc2)CC1)[C@H](O)c1ccc(O)cc1 [Ex. 16, [S-(R*S*)]-α-(4-Hydroxyphenyl)-β-methyl]-4-(phenylmethyl)-1-piperidinepropanol]	8.52	7.10

Now from value to molecule, other results behind:

pIC50 (NMDA receptor)	Structure (SMILES)	pIC50 (embryonic rat cortices)
6.82	CC(Cc1ccc(O)cc1)C(C)N1CCC(Cc2ccccc2)CC1 (racemic) [Ex. 10, rac.-4-[2-Methyl-3-[4-(phenylmethyl)-1-piperidinyl]butyl]phenol]	6.92
5.85	CC(Cc1ccccc1)CN1CCC(Cc2ccccc2)CC1 (racemic) [Ex. 21, rac.-1-(2-Methyl-3-phenylpropyl)-4-(phenylmethyl)piperidine]	4.89
6.05	C[C@@H](CN1CCC(Cc2ccccc2)CC1)C(=O)c1ccc(OCc2ccccc2)cc1 [Ex. 12, (S)-2-Methyl-1-[4-(phenylmethoxy)phenyl]-3-[4-(phenylmethyl)-1-piperidinyl]-1-propanone]	4.18
